Source: article PMC5524191 (ACS chemical biology, 2016)

Target: 20S proteasome (Homo sapiens, UniProt P28072+P28074+Q99436)
Assay: activation of Ac-Arg-Leu-Arg-AMC hydrolysis
Assay type: biochemical
Settings: activator, trypsin-like activity

Compound | fold activation
C=C(CC)C(=O)c1ccc(OCC(=O)NCCCCCCNC(=O)CNC(=O)OC(C)(C)C)c(Cl)c1Cl [compound 5, EA-B1G] | Activation of the trypsin-like subunits was also observed with EA-B1G and EA-B2O
C=C(CC)C(=O)c1ccc(OCC(=O)NCCCCCCNC(=O)[C@H](CCCNC(=O)OC(C)(C)C)NC(=O)OC(C)(C)C)c(Cl)c1Cl [compound 4, EA-B2O] | Activation of the trypsin-like subunits was also observed with EA-B1G and EA-B2O
